Laboratory results as given in patent publication US11040949B2, “Compounds affecting pigment production and methods for treatment of bacterial diseases” (Versitech Limited, priority 2017, dated 2021).

Test system: S. aureus USA300
Experiment: In vitro staphyloxanthin production inhibition by NP-16 analogues
Type: cell-based, Staphylococcus aureus
Conditions: S. aureus USA300, methanol extract OD 450 nm, 300 nM to 700 nM
Description: Evaluation of NP-16 analogues in Staphyloxanthin production
The in vitro pigment inhibition studies were performed by S. aureus USA300 cultured in BHI with or without the presence of inhibitor compounds at 37° C. and 250 rpm for 36-48 hours. The bacteria were washed twice with PBS prior to the staphyloxanthin purification with methanol. The OD of the extracts were monitor at 450 nm using DTX880 multi-plate reader spectrophotometer (Beckman). The concentration range tested for the compounds were between 300 nM to 700 nM, and control groups were added with equal volume of DMSO.
The cytotoxicity of NP-16 and some of its analogues was tested against Raw 264.7 cells, and the cell tolerance of each compounds were documented in Table 3. Along with the in vitro staphyloxanthin production of the NP-16 analogues were being tested, the compounds can exert staphyloxanthin production inhibition. The staphyloxanthin from the overnight-cultured bacteria were extracted with methanol and quantified in via spectrophotometry. The results were presented in relative ratio to NP-16 in both the inhibition ratio as well as the TC50 (concentration for decreasing cell viability by 50%) in Table 3 (sample names correspond to those listed in Table 1).

Compound	Relative ratio to NP16 based on inhibition ratio
O=C(/C=C/c1ccccc1)Nc1ccc(S(=O)(=O)N2CCCCC2)cc1 [NP16-XL-010, 3-phenyl-N-[4-(1-piperidine-1-sulfonyl)-phenyl]acrylamide]	1.43
CC(=O)Oc1ccc(/C=C/C(=O)Nc2ccc(S(=O)(=O)N3CCCCC3)cc2)cc1 [NP16-XL-011, 3-(4-acetoxyl-phenyl)-N-[4-(1-piperidine-1-sulfonyl)phenyl]-acrylamide]	1.31
CC(=O)Oc1cccc(/C=C/C(=O)Nc2ccc(S(=O)(=O)N3CCCCC3)cc2)c1 [NP16-XL-012, 3-(5-acetoxyl-phenyl)-N-[4-(1-piperidine-1-sulfonyl)phenyl]-acrylamide]	1.16
CC(=O)Oc1ccccc1/C=C/C(=O)Nc1ccc(S(=O)(=O)N2CCCCC2)cc1 [NP16-XL-013, 3-(6-acetoxyl-phenyl)-N-[4-(1-piperidine-1-sulfonyl)phenyl]-acrylamide]	0.28
O=C(/C=C/c1ccc(Br)cc1)Nc1ccc(S(=O)(=O)N2CCCCC2)cc1 [NP16-XL-014, 3-(4-bromophenyl)-N-[4-(1-piperidine-1-sulfonyl)phenyl]-acrylamide]	0.74
O=C(/C=C/c1cccc(Br)c1)Nc1ccc(S(=O)(=O)N2CCCCC2)cc1 [NP16-XL-015, 3-(5-bromophenyl)-N-[4-(1-piperidine-1-sulfonyl)phenyl]-acrylamide]	1.18
Cc1ccc(/C=C/C(=O)Nc2ccc(S(=O)(=O)N3CCCCC3)cc2)cc1 [NP16-XL-017, 3-(4-methylphenyl)-N-[4-(1-piperidine-1-sulfonyl)phenyl]-acrylamide]	0.09
Cc1ccccc1/C=C/C(=O)Nc1ccc(S(=O)(=O)N2CCCCC2)cc1 [NP16-XL-018, 3-(6-methylphenyl)-N-[4-(1-piperidine-1-sulfonyl)phenyl]-acrylamide]	2.48
O=C(/C=C/c1ccc(Br)cc1)Nc1ccc(S(=O)(=O)N2CCCc3ccccc32)cc1 [NP16-XL-029, 3-(4-bromophenyl)-N-[4-(1,2,3,4--tetra-hydroquinoline-1-sulfonyl)phenyl]-acrylamide]	0.53
O=C(/C=C/c1ccccc1)Nc1ccc(S(=O)(=O)N2CCCc3ccccc32)cc1 [NP16-XL-030, 3-phenyl-N-[4-(1,2,3,4--tetra-hydroquinoline-1-sulfonyl)phenyl]-acrylamide]	1.26
O=C(/C=C/c1ccc(Br)cc1)Nc1ccc(S(=O)(=O)N2CCc3ccccc3C2)cc1 [NP16-XL-031, 3-(4-bromophenyl)-N-[4-(3,4-dihydro-1H-isoquinoline-2-sulfonyl)phenyl]-acrylamide]	0.23
O=C(/C=C/c1ccccc1)Nc1ccc(S(=O)(=O)N2CCc3ccccc3C2)cc1 [NP16-XL-032, 3-phenyl-N-[4-(3,4-dihydro-1H-isoquinoline-2-sulfonyl)phenyl]-acrylamide]	1.17
O=C(/C=C/c1ccccc1)Nc1ccc(S(=O)(=O)N(C(=O)/C=C/c2ccccc2)c2ccccc2)cc1 [NP16-XL-036, 3-phenyl-N-{[4-(N-phenyl-3-phenylprop-2-enamido)sulfonyl]-phenyl}-acrylamide]	3.04
O=C(/C=C/c1ccccc1)Nc1ccc(S(=O)(=O)Nc2ccccc2)cc1 [NP16-XL-037, 3-phenyl-N-[(4-phenylsulfamoyl)-phenyl]acrylamide]	3.02
O=C(/C=C/c1ccccc1Br)Nc1ccc(S(=O)(=O)Nc2ccccc2)cc1 [NP16-XL-038, 3-(6-bromophenyl)-N-[(4-phenylsul-famoyl)phenyl]-acrylamide]	3.23
O=C(/C=C/c1ccccc1Br)Nc1ccc(S(=O)(=O)N(C(=O)/C=C/c2ccccc2Br)c2ccccc2)cc1 [NP16-XL-039, 3-(6-bromophenyl)-N-{[4-(N-phenyl-3-6-bromophenyl-prop-2-enamido)-sulfonyl]phenyl}-acrylamide]	3.23
O=C(/C=C/c1c(F)cccc1F)Nc1ccc(S(=O)(=O)Nc2ccccc2)cc1 [NP16-XL-040, 3-(2,6-difluoro-phenyl)-N-[(4-phenylsulfamoyl)-phenyl]acrylamide]	2.51
O=C(/C=C/c1ccccc1F)Nc1ccc(S(=O)(=O)Nc2ccccc2)cc1 [NP16-XL-041, 3-(6-fluorophenyl)-N-[(4-phenyl-sulfamoyl)phenyl]-acrylamide]	3.17
O=C(/C=C/c1cccnc1)Nc1ccc(S(=O)(=O)Nc2ccccc2)cc1 [NP16-XL-042, 3-(pyridin-3-yl)-N-[(4-phenyl-sulfamoyl)phenyl]-acrylamide]	1.44
N#Cc1ccccc1/C=C/C(=O)Nc1ccc(S(=O)(=O)Nc2ccccc2)cc1 [NP16-XL-043, 3-(6-cyanophenyl)-N-[(4-phenyl-sulfamoyl)phenyl]-acrylamide]	3.23
O=C(/C=C/c1ccccn1)Nc1ccc(S(=O)(=O)Nc2ccccc2)cc1 [NP16-XL-044, 3-(pyridin-2-yl)-N-[(4-phenyl-sulfamoyl)phenyl]-acrylamide]	2.47
O=C(/C=C/c1c(F)cccc1F)Nc1ccc(S(=O)(=O)N2CCCCC2)cc1 [NP16-XL-045, 3-(2,6-difluoro-phenyl)-N-[4-(1-piperidine-1-sulfonyl)phenyl]-acrylamide]	0.88
N#Cc1ccccc1/C=C/C(=O)Nc1ccc(S(=O)(=O)N2CCCCC2)cc1 [NP16-XL-047, 3-(6-cyanophenyl)-N-[4-(1-piperidine-1-sulfonyl)phenyl]-acrylamide]	3.18
O=C(/C=C/c1ccccc1Br)Nc1ccc(C(=O)Nc2ccccc2)cc1 [NP16-XL-048, 3-(6-bromphenyl)-N-[(4-phenylamine-carbonyl)phenyl]-acrylamide]	0.23
N#Cc1ccccc1/C=C/C(=O)Nc1ccc(C(=O)Nc2ccccc2)cc1 [NP16-XL-049, 3-(6-cyanophenyl)-N-[(4-phenylamine-carbonyl)phenyl]-acryiamide]	0.21
CN1CCN(S(=O)(=O)c2ccc(NC(=O)/C=C/c3ccccc3Br)cc2)CC1 [NP16-XL-052, 3-(6-bromophenyl)-N-[4-(4-methyl-1,4-piperazine-1-sulfonyl)phenyl]-acrylamide]	3.18
CN1CCN(S(=O)(=O)c2ccc(NC(=O)/C=C/c3c(F)cccc3F)cc2)CC1 [NP16-XL-053, 3-(2,6-difluoro-phenyl)-N-[4-(4-methyl-1,4-piperazine-1-sulfonyl)phenyl]-acrylamide]	1.26
CN1CCN(S(=O)(=O)c2ccc(NC(=O)/C=C/c3ccccc3F)cc2)CC1 [NP16-XL-054, 3-(6-fluorophenyl)-N-[4-(4-methyl-1,4-piperazine-1-sulfonyl)phenyl]-acrylamide]	2.86
